# According to patent US6696480B2, “Upregulation of type III endothelial cell nitric oxide synthase by agents that disrupt actin cytoskeletal organization” (Brigham and Women's Hospital, Inc., priority 1998, dated 2004):
# Where “and” joins values, the source holds several entries; their conditions need not be identical. Equal values may be shown once. Read-outs that look alike come from different tables or passages of the source.
# Legend:
# ecNOS protein = conditions: for increase in ecNOS protein levels compared to ox-LDL alone: co-treatment with ox-LDL, simvastatin 0.1 mmol/L; for ecNOS protein levels, % of basal levels: hypoxia (3% O2)
# [1] = test system: cerebral ischemia, left middle cerebral artery (MCA) occlusion; assay: Murine model of cerebral vascular ischemia (MCA occlusion); format: in vivo, SV-129 mice
# From the text: Ischemia was produced by occluding the left middle cerebral artery (MCA) with a coated 8.0 nylon monofilament under anesthesia as described (Huang, Z et al., J Cereb Blood Flow Metab, 1996, 16:981-987, Huang, Z et al., Science, 1994, 265:1883-1885, Hara, H et al., J Cereb Blood Flow Metab, 1997, 1:515-526). Arterial blood pressure, heart rate, arterial oxygen pressure, and partial pressure of carbon dioxide were monitored as described (Huang, Z et al., J Cereb Blood Flow Metab, 1996, 16:981-987, Huang, Z et al., Science, 1994, 265:1883-1885, Hara, H et al., J Cereb Blood Flow Metab, 1997, 1:515-526). The filaments were withdrawn after 2 hours and after 24 h, mice were either sacrificed or tested for neurological deficits using a well-established, standardized, observer-blinded protocol as described (Huang, Z et al., J Cereb Blood Flow Metab, 1996, 16:981-987, Huang, Z et al., Science, 1994, 265:1883-1885, Hara, H et al., J Cereb Blood Flow Metab, 1997, 1:515-526). The motor deficit score range from 0 (no deficit) to 2 (complete deficit).
# Brains were divided into five coronal 2-mm sections using a mouse brain matrix (RBM-200C, Activated Systems, Ann Arbor, Mich., USA). Infarction volume was quantitated with an image analysis system (M4, St. Catharines, Ontario, Canada) on 2% 2,3,5-triphenyltetrazolium chloride stained 2-mm slices. The levels of serum cholesterol, creatinine and transaminases were determined by the Tufts University Veterinary Diagnostic Laboratory (Grafton, Mass.).
# ecNOS gene transcription = assay: Nuclear run-on assay of ecNOS gene transcription
# ecNOS [2] = assay: ecNOS activity, LNMA-inhibitable nitrite production (modified nitrite assay); format: cell-based, human
# ecNOS [3] = assay: ecNOS activity from tissues, arginine to citrulline conversion in mouse aortae; format: in vivo, SV-129 mice; conditions: 2 mg/kg, 14 days
# Experimental: The ecNOS activities in mice aortae and brains were measured by the conversion of [^3H]arginine to [^3H]citrulline in the presence and absence of LNMA (5 mM) as described earlier.
# ecNOS mRNA [4] = assay: ecNOS mRNA half-life in the presence of actinomycin D; format: cell-based, human; conditions: for half-life of ecNOS mRNA (t1/2) / ecNOS mRNA half-life: actinomycin D; for ecNOS mRNA half-life: simvastatin 1 mM
# human endothelial cells = assay: Cellular viability (cell count, morphology, Trypan blue exclusion); conditions: simvastatin 0.01 to 0.1 mmol/L, lovastatin 10 mmol/L, up to 96 h
# ecNOS mRNA [5] = assay: Northern blotting of ecNOS steady-state mRNA in endothelial cells; format: cell-based, human; set-up: ecNOS mRNA levels increased to / ecNOS mRNA levels, % of basal levels / effect on basal ecNOS mRNA levels: unit of the concentration uncertain; conditions: for increase in ecNOS mRNA levels compared to ox-LDL: co-treatment with ox-LDL, simvastatin 0.1 mmol/L; for ecNOS mRNA levels, % of basal levels: hypoxia + simvastatin (1 (unit uncertain))
# Experimental: Equal amounts of total RNA (10-20 mg) were separated by 1.2% formaldehyde-agarose gel electrophoresis and transferred overnight onto Hybond nylon membranes. […] All Northern blots were subjected to stringent washing conditions (0.2× SSC/0.1% SDS at 65° C.) prior to autoradiography. RNA loading was determined by rehybridization with human GAPDH probe.
# ecNOS mRNA [6] = assay: Quantitative RT-PCR of ecNOS mRNA in mouse aortae and brains; format: in vivo, SV-129 mice; conditions: dose-dependent, 14 days
# From the text: Total RNA from mouse aortae and brains was isolated by the guanidinium isothiocyanate method and reverse transcribed using oligo-dT (mRNA Preamplification reagents; Gibco BRL) and Taq ploymerase (Perkin-Elmer). One tenth of the sDNA was used as template for the PCR reaction. […] [NT] ID NO. 1) and 3'Primer: […] For amplification of glyceraldehyde 3-phosphate dehydrogenase (GAPDH), 0.1 nmol of the following primers amplifying a 452-bp fragment were used: 5'Primer: [NT] ID NO. 3) and 3' Primer: […] NO. 4). Denaturing was performed at 94° C. for 30 s, annealing at 60° C. for 30 s, and elongation at 72° C. for 60 s.
# [7] = wild-type mice, 2 mg/kg, 14 days
# [8] = ox-LDL + simvastatin 0.1 mmol/L
# [9] = simvastatin 1 mM alone (20% O2)
structure (smiles),measurement,setting,value
CCC(C)(C)C(=O)O[C@H]1C[C@@H](C)C=C2C=C[C@H](C)[C@H](CC[C@@H]3C[C@@H](O)CC(=O)O3)[C@H]21 [simvastatin],increase in ecNOS protein levels compared to ox-LDL alone,ecNOS protein; 24 h,1.3 fold
same,increase in ecNOS protein levels compared to ox-LDL alone,ecNOS protein; 72 h,3.3 fold
same,increase in ecNOS protein levels compared to ox-LDL alone,ecNOS protein; 96 h,8.9 fold
same,"ecNOS protein levels, % of basal levels","ecNOS protein; 48 h, simvastatin 1 mM",159±13%
same,"ecNOS protein levels, % of basal levels","ecNOS protein; 48 h, simvastatin 10 mM",223±21%
same,effect on ecNOS expression,ecNOS protein; not chemically-activated statin (10),no effect
same,decrease in ecNOS protein,"ecNOS protein; ox-LDL + simvastatin 0.01 mmol/L, 48 h",57%±8%
same,decrease in ecNOS protein level,"ecNOS protein; ox-LDL + simvastatin 0.1 mmol/L, 24 h",15% (2%
same,decrease in ecNOS protein,"ecNOS protein; ox-LDL + simvastatin 0.1 mmol/L, 48 h",4%±7%
same,ecNOS protein levels increased above basal expression,"ecNOS protein; ox-LDL + simvastatin 0.1 mmol/L, 72 h",110% (6%
same,ecNOS protein levels increased above basal expression,"ecNOS protein; ox-LDL + simvastatin 0.1 mmol/L, 96 h",124% (6%
same,ecNOS protein levels above baseline,"ecNOS protein; ox-LDL + simvastatin 1 mmol/L, 48 h",146%±9% and 150% (8%
same,upregulation of ecNOS expression,ecNOS protein; simvastatin alone (1),2.9 fold
same,increase in cerebral blood flow over basal values,[1]; 2 mg/kg,23%
same,improvement of neurological motor deficit score compared to controls,"[1]; 2 mg/kg, 14 days",~2 fold
same,neurological motor deficit score,"[1]; 2 mg/kg, 14 days, 2 h MCA occlusion, 22 hours of reperfusion, score 0 to 2",0.8±0.2
same,increase in cerebral blood flow over basal values,[1]; 20 mg/kg,35%
same,persistence of the effect on cerebral infarct size,"[1]; mouse, in vivo",up to 3 days
same,cerebral infarct size,[1]; [7],73.8±8.5 mm3
same,smaller cerebral infarct sizes compared to untreated animals,[1]; [7],25%
same,decrease in ecNOS gene transcription,ecNOS gene transcription; hypoxia + simvastatin 1 mM,83±6%
same,increase in ecNOS gene transcription,"ecNOS gene transcription; simvastatin alone, normoxic condition",20±5%
same,decrease in ecNOS activity compared to untreated cells,ecNOS [2]; [8],28±3%
same,ecNOS-dependent nitrite production,ecNOS [2]; [8],"6.4±0.3 nmol/500,000 cells/24 h"
same,ecNOS-dependent nitrite production,ecNOS [2]; ox-LDL + simvastatin 1 mmol/L,"12.8±2.7 nmol/500,000 cells/24 h"
same,increase in ecNOS activity compared to baseline,ecNOS [2]; ox-LDL + simvastatin 1 mmol/L,45±6%
same,nitrite production,ecNOS [2]; [9],"30±6.5 nmol/500,000 cells/24 h"
same,upregulation of nitrite production,ecNOS [2]; [9],5 fold
same,increase in ecNOS activity over basal activity,"ecNOS [2]; simvastatin 1 mM, 3% O2, 24 h",3 fold
same,nitrite production,"ecNOS [2]; simvastatin 1 mM, 3% O2, 24 h","18±5.0 nmol/500,000 cells/24 h"
same,ecNOS activity in aortae,ecNOS [3],0.39±0.09 U/mg protein
same,prolongation of ecNOS mRNA half-life,"ecNOS mRNA [4]; ox-LDL + simvastatin 0.1 mmol/L, versus ox-LDL",1.6 fold
same,half-life of ecNOS mRNA (t1/2),ecNOS mRNA [4]; [8],22 ± 3 h
same,ecNOS mRNA half-life,ecNOS mRNA [4]; hypoxic,38 ± 4 h
same,ecNOS mRNA half-life,ecNOS mRNA [4]; normoxic,46 ± 4 h
same,prolongation of ecNOS mRNA half-life over baseline,ecNOS mRNA [4]; simvastatin alone,1.3 fold
same,half-life of ecNOS mRNA (t1/2),ecNOS mRNA [4]; simvastatin alone,43 ± 4 h
same,noticeable adverse effects on human endothelial cell,human endothelial cells,Neither simvastatin (0.01 to 0.1 mmol/L) nor lovastatin (10 mmol/L) produced any noticeable adverse effects
same,increase in ecNOS mRNA levels compared to ox-LDL,ecNOS mRNA [5]; 48 h,6.3 fold
same,increase in ecNOS mRNA levels compared to ox-LDL,ecNOS mRNA [5]; 72 h,14.5 fold
same,"ecNOS mRNA levels, % of basal levels",ecNOS mRNA [5]; 24 h,195±12%
same,"ecNOS mRNA levels, % of basal levels",ecNOS mRNA [5]; 48 h,530±30%
same,ecNOS mRNA levels increased to,"ecNOS mRNA [5]; simvastatin (1 (unit uncertain)) alone, normoxia",340±24%
same,increase of ecNOS message compared to that of GAPDH in aortae,ecNOS mRNA [6],3 fold
